Drawing on patent US20230293535A1, “ERBB/BTK INHIBITORS” (Dizal (Jiangsu) Pharmaceutical Co., Ltd., priority 2018, published 2023), this text covers GI50 and IC50 for four compounds.

Structures are written as SMILES. pIC50: −log10 of the molar value. Some results are limits rather than exact numbers.

Common to all, as to assay type: cell-based
One test concerns Ba/F3 EGFR NPH ins cells. The experiment in a line: Cell proliferation, Ba/F3 EGFR NPH ins (CellTiter-Glo, 72 h).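 Further: IL3-independent cells carrying constitutively phosphorylated EGFR, compound dilution series, viable cells quantified by ATP luminescence, growth relative to DMSO wells after subtracting pre-dosing (day 0) baseline.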 Particulars: Ba/F3 EGFR, 72 h, Ba/F3 EGFR NPH ins, 72 h proliferation; read-out: EGFR Exon20 NPH insertion GI50.
Another test has as its system Ri-1 cells. The experiment in a line: BTK (wt) cell proliferation, Ri-1 (CellTiter-Glo, 72 h).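 Further: viable cells quantified as cellular ATP luminescence, proliferation normalized to a time-zero plate and the DMSO control, compounds tested across a dilution series.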 Particulars: Ri-1, 72 h, Ri-1 cells, 72 h, CellTiter-Glo; read-out: BTK WT Ri-1 GI50.
The target of test [1] is T1, human EGFR exon 20 V769_D770insASV (Homo sapiens, UniProt P00533, INS769ASV).
T1 construct: expressed in transfected cells; host or cells: Ba/F3 (DSMZ ACC-300), lentiviral transduction, puromycin selection, IL3 depletion
The experiment in a line: EGFR Exon20 ASV insertion cellular phosphorylation inhibition (MSD pEGFR Y1068/total EGFR).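 Further: electrochemiluminescent readout on an MSD SECTOR Imager, IL3-independent transduced cells in medium with 1% FBS, compound concentration series at 37 °C and 5% CO2.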 Particulars: Ba/F3 EGFR ASV ins cells, 4 h compound, p-EGFR(Y1068)/total EGFR.

Test [2] concerns NCI-H1975 EGFR L858R/T790M cells. The experiment in a line: Cell proliferation, NCI-H1975 EGFR L858R/T790M (CellTiter-Glo, 72 h).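 Further: viable cells quantified by luciferase-based ATP luminescence, proliferation expressed relative to DMSO-treated wells (100%) after subtracting a parallel plate read at the time of dosing.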 The note with it: Homo sapiens, NCI-H1975, 72 h, NCI-H1975, 72 h proliferation; read-out: EGFR L858R and T790M mutation GI50.
Protocol: WT or mutant cells were seeded in 384 well plates at appropriate concentrations with corresponding growth media supplemented with 10% FBS, for each experiment, identical plates were prepared in duplicates, and the plates were incubated overnight. On the next day, one of each duplicated plates was dosed with tested compounds at a series of concentrations, and another one of the duplicated plate was analysied for G0 value. The dosed plates were incubate for another 72 h at 37° C. with 5% CO2 and the number of viable cells in each well of the G0 plates or the dosed plates were measured by CellTiter-Glo® Luminescent Cell Viability Assay (Promega). This assay is a luminescent method for determining the number viable cells through measurement of cellular ATP concentration by detection of luciferase activity. Detection reagents (15 µl) was dispensed into per well, and the plates were incubate for 30 min at room temperature. Then, the luminescence in each well was measured using the Envision plate reader (PerkinElmer). The percentage of proliferation was calculated based on the formula: %Proliferation= 100 × (G3 value of sample well-Go value)/(G3 value of DMSO control-Go value).
Another test deals with OCI-LY-10 cells. The experiment in a line: BTK (wt) cell proliferation, OCI-LY-10 (CellTiter-Glo, 72 h).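 Further: viable cells quantified via cellular ATP luminescence, proliferation given as percent of DMSO control after subtracting a duplicate plate read at time of dosing.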 Particulars: Homo sapiens, OCI-Ly10, 72 h, OCI-LY-10 cells, 72 h, CellTiter-Glo; read-out: BTK WT OCI-LY-10 GI50.
Another test has as its system TMD-8 cells. The experiment in a line: BTK (wt) cell proliferation, TMD-8 (CellTiter-Glo, 72 h).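 Further: viable cells quantified by ATP-based luminescence, proliferation expressed as percent of DMSO control after subtracting a time-zero baseline plate read at dosing.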 Particulars: Homo sapiens, TMD8, 72 h, TMD-8 cells, 72 h, CellTiter-Glo; read-out: BTK WT TMD-8 GI50.
In the next test the test system is WT EGFR cell line A-431. The experiment in a line: Cell proliferation, WT EGFR A431 (CellTiter-Glo, 72 h).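 Further: proliferation from a luminescent ATP viability signal, expressed as 100 × (treated minus time-zero plate) over (DMSO control minus time-zero plate), cells grown with 10% FBS.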 The note with it: Homo sapiens, A-431, 72 h, A431, 72 h proliferation; read-out: EGFR WT A431 GI50.
Test [3] deals with T2, human EGFR exon 20 H773_V774insNPH (Homo sapiens, UniProt P00533, INS773NPH).
T2 construct: host or cells: Ba/F3
T2 sequence (P00533 with tags, fused parts or gaps INS773NPH): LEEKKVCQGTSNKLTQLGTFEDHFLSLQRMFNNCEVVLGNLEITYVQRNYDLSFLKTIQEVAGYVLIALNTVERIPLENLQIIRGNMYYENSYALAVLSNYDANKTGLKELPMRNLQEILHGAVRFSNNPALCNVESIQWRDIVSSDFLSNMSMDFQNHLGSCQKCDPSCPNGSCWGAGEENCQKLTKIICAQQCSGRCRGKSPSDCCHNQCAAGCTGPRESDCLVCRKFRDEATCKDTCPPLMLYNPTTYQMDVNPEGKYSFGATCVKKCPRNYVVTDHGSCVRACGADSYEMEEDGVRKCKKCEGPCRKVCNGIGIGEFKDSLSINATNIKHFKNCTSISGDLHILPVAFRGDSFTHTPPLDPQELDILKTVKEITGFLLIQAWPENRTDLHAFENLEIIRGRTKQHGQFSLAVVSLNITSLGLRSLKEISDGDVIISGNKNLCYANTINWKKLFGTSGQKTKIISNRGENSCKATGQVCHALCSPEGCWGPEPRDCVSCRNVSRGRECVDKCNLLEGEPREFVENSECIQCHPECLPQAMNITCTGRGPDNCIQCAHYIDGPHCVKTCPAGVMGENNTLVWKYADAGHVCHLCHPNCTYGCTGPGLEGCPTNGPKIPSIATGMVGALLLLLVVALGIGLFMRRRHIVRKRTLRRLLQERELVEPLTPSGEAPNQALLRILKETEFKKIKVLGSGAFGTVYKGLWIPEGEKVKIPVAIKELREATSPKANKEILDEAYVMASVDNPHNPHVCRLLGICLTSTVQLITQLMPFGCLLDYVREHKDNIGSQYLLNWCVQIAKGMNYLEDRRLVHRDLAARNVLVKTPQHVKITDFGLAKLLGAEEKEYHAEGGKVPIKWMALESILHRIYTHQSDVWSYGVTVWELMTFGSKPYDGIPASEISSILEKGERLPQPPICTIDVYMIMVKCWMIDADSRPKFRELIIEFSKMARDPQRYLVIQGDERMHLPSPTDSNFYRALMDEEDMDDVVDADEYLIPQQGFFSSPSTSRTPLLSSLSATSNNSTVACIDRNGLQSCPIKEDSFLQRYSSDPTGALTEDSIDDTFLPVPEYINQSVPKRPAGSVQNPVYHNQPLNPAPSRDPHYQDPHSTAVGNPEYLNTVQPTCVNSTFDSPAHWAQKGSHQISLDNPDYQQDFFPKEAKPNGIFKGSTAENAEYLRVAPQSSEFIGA
The experiment in a line: EGFR Exon20 NPH insertion cellular phosphorylation inhibition (MSD pEGFR Y1068/total EGFR).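 Further: IL3-independent Ba/F3 cells with constitutively phosphorylated EGFR, compound exposure at 37 °C under 5% CO2, electrochemiluminescent MSD measurement of the p-EGFR to total EGFR ratio.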 The note with it: Ba/F3 EGFR NPH ins cells, 4 h compound, p-EGFR(Y1068)/total EGFR.

A further test has as its system Ba/F3 EGFR ASV ins cells. The experiment in a line: Cell proliferation, Ba/F3 EGFR ASV ins (CellTiter-Glo, 72 h).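 Further: IL3-independent Ba/F3 cells transduced with EGFR V769_D770insASV, cellular ATP luminescence after compound exposure, growth relative to DMSO control with the day-0 baseline reading subtracted.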 The note with it: Ba/F3 EGFR, 72 h, Ba/F3 EGFR ASV ins, 72 h proliferation; read-out: EGFR Exon20 ASV insertion GI50.
In test [4] the test system is Her2 exon 20 insertion YVMA transduced NIH-3T3 cell line. The experiment in a line: Cell proliferation, Her2 YVMAins NIH-3T3 (CellTiter-Glo, 72 h).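 Further: viable cells quantified by ATP luminescence, growth over a day-zero baseline plate expressed as percent of DMSO control growth, compound dilution series in 10% FBS medium.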 Particulars: Mus musculus, NIH3T3, 72 h, Her2 YVMAins cells, 72 h proliferation; read-out: Her2 Exon 20 YVMA insertion GI50.
The next test addresses T3, EGFR L858R&T790M (Homo sapiens, UniProt P00533, L858R/T790M).
T3 construct: host or cells: NCI-H1975
The experiment in a line: EGFR L858R and T790M cellular phosphorylation inhibition in NCI-H1975 (MSD).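 Further: phosphorylated and total EGFR detected by electrochemiluminescence, cells exposed to compound in medium containing 1% FBS at 37 °C.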 The note with it: NCI-H1975 cells, 4 h compound, p-EGFR(Y1068)/total EGFR; read-out: EGFR L858R and T790M mutation IC50.

Test [5] has as its target T4, human Her2 exon 20 insertion mutation YVMA (Homo sapiens, UniProt P04626, INS775YVMA).
T4 construct: expressed in transfected cells; host or cells: NIH-3T3, lentiviral transduction, puromycin selection
The experiment in a line: Her2 Exon 20 YVMA insertion cellular phosphorylation inhibition (MSD p-Her2 Y1248/total Her2).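 Further: lentivirally transduced NIH-3T3 cells in 1% FBS medium, electrochemiluminescent MSD read-out, graded compound concentrations at 37 °C.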 The note with it: Her2 YVMAins cells, 4 h compound.

In the next test the test system is DB cells. The experiment in a line: BTK (wt) cell proliferation, DB (CellTiter-Glo, 72 h).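 Further: DB cells in 384-well plates given a dilution series of compound, viable cells read by ATP luminescence, growth expressed versus DMSO control after subtracting a time-zero plate reading.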 The note with it: Homo sapiens, DB, DB cells, CellTiter-Glo, read-out: Non-BCR activated DB GI50.
A further test addresses T5, WT EGFR (Homo sapiens, UniProt P00533).
T5 construct: host or cells: A-431
The experiment in a line: WT EGFR cellular phosphorylation inhibition in A-431 (hEGF stimulated, MSD).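 Further: electrochemiluminescence read-out of EGFR Tyr1068 phosphorylation expressed as ratio to total EGFR, cells kept in medium with 1% FBS, compounds tested as a concentration series.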 The note with it: A431 cells, 4 h compound, then 100 ng/ml hEGF 10 min.

T5 sequence (P00533 25-1210): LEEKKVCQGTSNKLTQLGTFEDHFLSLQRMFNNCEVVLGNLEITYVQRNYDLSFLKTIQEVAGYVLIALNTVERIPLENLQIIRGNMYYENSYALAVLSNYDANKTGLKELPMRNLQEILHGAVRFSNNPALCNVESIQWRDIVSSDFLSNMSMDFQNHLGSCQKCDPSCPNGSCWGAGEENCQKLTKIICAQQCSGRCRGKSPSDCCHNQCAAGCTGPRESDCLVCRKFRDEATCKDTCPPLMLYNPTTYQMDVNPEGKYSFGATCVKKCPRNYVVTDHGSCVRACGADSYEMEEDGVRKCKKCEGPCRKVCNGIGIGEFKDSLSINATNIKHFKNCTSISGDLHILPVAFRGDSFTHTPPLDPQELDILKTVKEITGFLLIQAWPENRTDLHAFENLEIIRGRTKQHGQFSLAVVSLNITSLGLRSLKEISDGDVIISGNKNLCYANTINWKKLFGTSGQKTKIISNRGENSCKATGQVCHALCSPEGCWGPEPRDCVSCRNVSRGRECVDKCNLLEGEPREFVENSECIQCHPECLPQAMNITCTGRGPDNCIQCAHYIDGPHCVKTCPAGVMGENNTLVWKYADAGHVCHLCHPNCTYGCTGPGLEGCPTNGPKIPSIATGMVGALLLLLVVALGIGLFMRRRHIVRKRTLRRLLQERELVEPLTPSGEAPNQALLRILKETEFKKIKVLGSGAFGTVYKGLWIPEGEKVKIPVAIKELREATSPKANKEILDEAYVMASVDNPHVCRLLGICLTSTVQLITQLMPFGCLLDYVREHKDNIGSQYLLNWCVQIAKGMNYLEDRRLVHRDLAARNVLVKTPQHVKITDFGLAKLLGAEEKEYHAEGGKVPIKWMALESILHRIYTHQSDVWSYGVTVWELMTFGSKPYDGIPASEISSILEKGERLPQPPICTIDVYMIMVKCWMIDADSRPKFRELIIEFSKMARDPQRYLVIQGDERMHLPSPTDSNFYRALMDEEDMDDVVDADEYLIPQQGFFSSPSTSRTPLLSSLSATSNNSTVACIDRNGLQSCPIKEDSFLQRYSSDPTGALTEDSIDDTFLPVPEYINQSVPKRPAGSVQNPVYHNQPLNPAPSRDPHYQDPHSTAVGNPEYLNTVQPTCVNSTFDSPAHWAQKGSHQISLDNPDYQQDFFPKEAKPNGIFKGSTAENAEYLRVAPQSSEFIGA
T4 sequence (P04626 with tags, fused parts or gaps INS775YVMA): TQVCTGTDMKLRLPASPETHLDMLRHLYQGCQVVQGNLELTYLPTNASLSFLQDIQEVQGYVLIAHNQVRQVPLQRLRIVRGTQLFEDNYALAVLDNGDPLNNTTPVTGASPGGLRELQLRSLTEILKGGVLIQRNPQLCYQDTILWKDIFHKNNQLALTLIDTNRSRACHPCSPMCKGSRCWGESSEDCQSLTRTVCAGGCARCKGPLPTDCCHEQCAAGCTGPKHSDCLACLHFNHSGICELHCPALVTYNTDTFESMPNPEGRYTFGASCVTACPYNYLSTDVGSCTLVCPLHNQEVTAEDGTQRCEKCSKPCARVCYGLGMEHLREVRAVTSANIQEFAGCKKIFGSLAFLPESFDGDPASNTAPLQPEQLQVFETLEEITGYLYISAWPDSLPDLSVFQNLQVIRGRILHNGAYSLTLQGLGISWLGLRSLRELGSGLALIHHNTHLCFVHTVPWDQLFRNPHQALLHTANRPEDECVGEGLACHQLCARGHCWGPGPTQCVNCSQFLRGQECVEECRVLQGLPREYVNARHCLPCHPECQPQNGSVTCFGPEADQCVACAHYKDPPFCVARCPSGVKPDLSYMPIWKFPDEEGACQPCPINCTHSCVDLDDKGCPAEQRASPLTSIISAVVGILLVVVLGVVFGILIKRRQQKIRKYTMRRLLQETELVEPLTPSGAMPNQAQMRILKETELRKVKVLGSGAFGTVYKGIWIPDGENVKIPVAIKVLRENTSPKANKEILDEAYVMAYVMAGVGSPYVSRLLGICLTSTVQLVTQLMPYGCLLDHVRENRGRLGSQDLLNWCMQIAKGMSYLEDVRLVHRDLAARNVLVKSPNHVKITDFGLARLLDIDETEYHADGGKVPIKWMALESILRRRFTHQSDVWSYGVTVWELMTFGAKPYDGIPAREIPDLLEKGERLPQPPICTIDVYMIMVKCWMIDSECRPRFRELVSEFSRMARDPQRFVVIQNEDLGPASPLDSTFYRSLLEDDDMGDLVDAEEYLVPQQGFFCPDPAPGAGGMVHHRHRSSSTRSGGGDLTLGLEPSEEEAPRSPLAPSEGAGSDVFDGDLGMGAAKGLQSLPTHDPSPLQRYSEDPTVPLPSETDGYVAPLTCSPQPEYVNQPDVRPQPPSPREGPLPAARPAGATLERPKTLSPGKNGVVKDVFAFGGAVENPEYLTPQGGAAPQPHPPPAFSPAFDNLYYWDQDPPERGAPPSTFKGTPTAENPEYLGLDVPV
T3 sequence (P00533 25-1210 T790M/L858R): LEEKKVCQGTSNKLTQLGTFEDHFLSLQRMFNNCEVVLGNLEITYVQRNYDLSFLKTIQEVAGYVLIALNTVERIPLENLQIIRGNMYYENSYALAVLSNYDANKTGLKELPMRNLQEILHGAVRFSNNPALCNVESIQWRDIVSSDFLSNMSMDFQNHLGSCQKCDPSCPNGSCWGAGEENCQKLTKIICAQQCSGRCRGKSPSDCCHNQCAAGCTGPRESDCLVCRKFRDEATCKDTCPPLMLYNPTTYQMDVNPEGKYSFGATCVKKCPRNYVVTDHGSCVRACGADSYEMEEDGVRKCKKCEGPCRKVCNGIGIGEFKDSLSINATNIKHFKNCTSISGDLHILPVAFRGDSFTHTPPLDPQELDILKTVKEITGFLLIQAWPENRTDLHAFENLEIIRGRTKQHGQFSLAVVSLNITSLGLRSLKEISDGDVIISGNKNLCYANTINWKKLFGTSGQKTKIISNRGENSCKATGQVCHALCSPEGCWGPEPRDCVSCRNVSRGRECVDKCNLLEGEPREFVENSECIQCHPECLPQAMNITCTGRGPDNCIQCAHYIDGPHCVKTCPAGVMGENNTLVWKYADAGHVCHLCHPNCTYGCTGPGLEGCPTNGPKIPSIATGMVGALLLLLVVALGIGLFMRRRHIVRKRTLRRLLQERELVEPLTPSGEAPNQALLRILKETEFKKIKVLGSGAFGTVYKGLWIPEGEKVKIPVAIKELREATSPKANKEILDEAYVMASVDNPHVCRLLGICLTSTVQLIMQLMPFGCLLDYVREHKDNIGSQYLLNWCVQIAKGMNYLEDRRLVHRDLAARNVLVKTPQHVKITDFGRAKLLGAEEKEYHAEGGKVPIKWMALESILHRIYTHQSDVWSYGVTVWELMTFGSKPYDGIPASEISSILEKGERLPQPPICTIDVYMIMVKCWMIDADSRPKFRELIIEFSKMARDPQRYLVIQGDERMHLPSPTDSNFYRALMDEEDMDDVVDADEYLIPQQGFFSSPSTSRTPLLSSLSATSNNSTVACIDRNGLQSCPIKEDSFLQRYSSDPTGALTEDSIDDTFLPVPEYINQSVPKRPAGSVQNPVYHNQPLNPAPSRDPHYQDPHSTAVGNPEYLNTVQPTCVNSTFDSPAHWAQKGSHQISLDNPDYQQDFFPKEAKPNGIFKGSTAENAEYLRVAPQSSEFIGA
Protocol for Ri-1 cells: (§1) OCI-LY-10 at 3,750 cells/well, TMD-8 and Ri-1 at 2,000 cells/well, and DB at 1,250 cells/well, respectively, were sorted into 384-well plates in RPMI1640 medium with 10% FBS. After overnight incubation, all cells were incubated with compound at a series of concentrations. Meanwhile, a duplicated plate of each cell line was prepared for measuring G0 value. The dosed plates were further incubated for 72 hours and the number of viable cells was measured by CellTiter-Glo® Luminescent Cell Viability Assay (Promega), a luminescent method for determining the number of viable cells through measurement of cellular ATP concentration using Envision plate reader (PerkinElmer). The percentage of proliferation was calculated as: % Proliferation = 100 × (G3 value of sample well - G0 value)/(G3 value of DMSO control - G0 value).
Protocol for TMD-8 cells: as §1

`C=CC(=O)Nc1cc(Nc2ncnc(Nc3cc(F)c(C4CC4)cc3C(C)(C)O)n2)c(OC)cc1N1CC[C@@H]2CN(C)C[C@@H]21` [Compound 45, N-(5-(4-(4-cyclopropyl-5-fluoro-2-(2-hydroxypropan-2-yl)phenylamino)-1,3,5-triazin-2-ylamino)-4-methoxy-2-((3aR,6aR)-5-methylhexahydropyrrolo[3,4-b]pyrrol-1(2H)-yl)phenyl)acrylamide]: the GI50 in the test with Ba/F3 EGFR NPH ins cells stood at 17.8 nM; in the test with Ri-1 cells, 11.6 nM; in test [2], 1.1 nM; in the test with OCI-LY-10 cells, 5.25 nM; in the test on TMD-8 cells it was 2.33 nM; in the test with WT EGFR cell line A-431, 4.3 nM. Besides, the GI50 with Ba/F3 EGFR ASV ins cells is 13.6 nM; in test [4] it was 30.8 nM; in the test on DB cells, above 3000 nM. In addition, the pIC50 in [1] is 8.19; in [3], 8.54; on EGFR L858R&T790M, 9.52; in test [5] it was 8.52; against WT EGFR, 8.12.

As for `C=CC(=O)Nc1cc(Nc2ncnc(Nc3cc(F)c(C4CC4)cc3C(C)(C)O)n2)c(OC)cc1N1CCC[C@@H]1CN(C)C` [Compound 46, (R)-N-(5-(4-(4-cyclopropyl-5-fluoro-2-(2-hydroxypropan-2-yl)phenylamino)-1,3,5-triazin-2-ylamino)-2-(2-((dimethylamino)methyl)pyrrolidin-1-yl)-4-methoxyphenyl)acrylamide], the GI50 in the test with Ba/F3 EGFR NPH ins cells is 18.8 nM; in the test on Ri-1 cells it was 6.49 nM; in [2] it was 1.4 nM; in the test with OCI-LY-10 cells, 2.97 nM; in the test with TMD-8 cells, 0.9 nM; with WT EGFR cell line A-431, 4.5 nM. Moreover, the GI50 with Ba/F3 EGFR ASV ins cells stood at 8.2 nM; in test [4] it was 16.8 nM; in the test on DB cells, 2580 nM. Moreover, the negative-log IC50 (pIC50) was 8.19 in test [1]; 8.60 in test [3]; 9.70 on EGFR L858R&T790M; 8.77 in test [5]; 8.06 against WT EGFR.

As for `C=CC(=O)Nc1cc(Nc2ncnc(Nc3cc(F)c(F)cc3C(C)(O)CC)n2)c(OC)cc1N1CC[C@@H]2CN(C)C[C@@H]21` (stereo partly drawn) [Compound 47, N-(5-(4-(4,5-difluoro-2-(2-hydroxybutan-2-yl)phenylamino)-1,3,5-triazin-2-ylamino)-4-methoxy-2-((3aR,6aR)-5-methylhexahydropyrrolo[3,4-b]pyrrol-1(2H)-yl)phenyl) acrylamide], the concentration for 50% growth inhibition (GI50) is 27.1 nM in the test on Ba/F3 EGFR NPH ins cells; 208 nM with Ri-1 cells; 1.9 nM in [2]; 775 nM with OCI-LY-10 cells; 55.3 nM in the test with TMD-8 cells; 10.9 nM in the test on WT EGFR cell line A-431. Moreover, the GI50 was 22.1 nM in the test with Ba/F3 EGFR ASV ins cells, 34.1 nM in test [4] and above 3000 nM with DB cells. Further, the pIC50 in test [1] is 8.00; in test [3], 8.25; at EGFR L858R&T790M it was 9.52; in test [5], 8.36; on WT EGFR, 7.62.

On to `C=CC(=O)Nc1cc(Nc2ncnc(Nc3cc(F)c(F)cc3C(C)(O)CC)n2)c(OC)cc1N1CC[C@@H](N(C)C)C1` (stereo partly drawn) [Compound 48, N-(5-(4-(4,5-difluoro-2-(2-hydroxybutan-2-yl)phenylamino)-1,3,5-triazin-2-ylamino)-2-((R)-3-(dimethylamino)pyrrolidin-1-yl)-4-methoxyphenyl)acrylamide], for which the GI50 in the test with Ba/F3 EGFR NPH ins cells stood at 57.9 nM; in the test with Ri-1 cells, 371 nM; in [2], 3.2 nM; with OCI-LY-10 cells it was 14.1 nM; in the test on TMD-8 cells, 70.2 nM; in the test on WT EGFR cell line A-431, 14.1 nM. In addition, the 50% growth inhibitory concentration (GI50) is 29.1 nM in the test on Ba/F3 EGFR ASV ins cells, 57.9 nM in test [4] and above 3000 nM with DB cells. Further, the pIC50 in [1] is 7.79; in test [3] it was 7.95; on EGFR L858R&T790M, 9.40; in test [5], 8.55; against WT EGFR, 7.55.
